In the experiment the test system is Plasmodium falciparum Dd2 asexual blood stage.

Where only a bound is given, the exact number is not on record here.

Molecule `C=C(C)[C@@H]1CC[C@]2(C(=O)O)CC[C@]3(C)[C@H](CC[C@@H]4[C@@]5(C)CC[C@H](O)C(C)(C)[C@@H]5CC[C@]43C)[C@@H]12` registered an IC50 above 5 µM.

With `CC1=C(/C=C/C(C)=C/C=C/C(C)=C/C(=O)Nc2ccc(O)cc2)C(C)(C)CCC1`, the concentration for half-maximal inhibition (IC50) was above 5 µM.

`CN(Cc1ccc(C(C)(C)C)cc1)Cc1cccc2ccccc12` displayed a 50% inhibitory concentration (IC50) above 5 µM. Next, `CCNC(=O)Nc1cn2c(-c3ncc(CC)cn3)cc(-c3cccnc3)cc2n1`: above 5 µM; `CC(C)(C)OC(=O)NCc1ccc(C(=O)N[C@H]2CCOC2=O)cc1`: above 5 µM.

As to `CCc1cc(O)c(Oc2cccnc2N)cc1F`, the half-inhibitory concentration (IC50) was above 5 µM.

On to `CCCCCCCCC(CP(=O)(O)C(C)N)C(=O)O` (stereo not drawn), for which the IC50 was above 5 µM.

With `C=CCc1cc(Cc2cnc(N)nc2N)cc(OC)c1O`, the IC50 was above 5 µM. As for `CNCC(=O)OCc1cccnc1N(C)C(=O)OC(C)[n+]1cnn(C[C@](O)(c2cc(F)ccc2F)[C@@H](C)c2nc(-c3ccc(C#N)cc3)cs2)c1` (stereo partly drawn), the IC50 is above 5 µM.

Consider `CCc1cc(Nc2cc(=O)n(CCN3CCN(C(=O)c4ccccc4)CC3)c(=O)[nH]2)ccc1C`, for which the concentration for half-maximal inhibition (IC50) is above 5 µM.

`NC(=O)c1cnc2ccc(S(=O)(=O)c3ccccc3)cc2c1Nc1ccc(O)cc1` came in with an IC50 above 5 µM. Next, `O=C(NCc1cccc2ccccc12)c1cccs1`: above 5 µM. Then `O=C(O)c1sccc1S(=O)(=O)n1ccc2cc(Br)ccc21`, with above 5 µM; and `O=c1cc(OCc2ccccc2)ccn1Cc1ccccc1`, with above 5 µM; and `CONC(=N)c1ccc(-c2ccc(-c3ccc(C(=N)NOC)cc3)o2)cc1`, with above 5 µM. Next, `Cc1onc(-c2ccccc2)c1-c1ccc(S(N)(=O)=O)cc1`: above 5 µM; `O=C(Cn1cnc2ccccc2c1=O)Nc1ccccc1`: above 5 µM.

`c1ccc(-c2nnc3c4ccccc4c(N4CCNCC4)nn23)cc1` had a concentration for half-maximal inhibition (IC50) above 5 µM. Then `Cc1ccccc1NC(=O)Nc1cccc([N+](=O)[O-])c1`, with above 5 µM; and `CC(C)N(c1cc(-c2ccccc2)sc1C(=O)O)C(=O)[C@H]1CC[C@H](C)CC1`, with above 5 µM; and `CCCNc1ccc(S(=O)(=O)Nc2cc(C)on2)cc1`, with above 5 µM. Then `N#Cc1cc([N+](=O)[O-])ccc1Oc1ccccc1Cl`, with above 5 µM; and `CC1(C)CC(NC(=O)C(=O)Nc2ccc(Cl)cc2)CC(C)(C)N1`, with above 5 µM; and `O=C(Cc1ccccc1F)Nc1nc2ccccc2[nH]1`, with above 5 µM. `CS(=O)(=O)c1ccc(Oc2ccc(Cl)cc2)cc1` displayed an IC50 above 5 µM. Next, `COc1c(NC(=O)[C@H]2CC[C@@H](COc3ccc([N+](=O)[O-])cc3)CC2)c(F)cc2c(=O)c(C(=O)O)cn(C3CC3)c12`: above 5 µM; `C[C@H](NC(=O)C(=O)Nc1ccccc1C(C)(C)C)C(=O)N[C@@H](CC(=O)O)C(=O)COc1c(F)c(F)cc(F)c1F`: above 5 µM. Then `CCc1oc2ccccc2c1C(=O)c1ccc(O)cc1`, with above 5 µM; and `CC[C@H](CO)Nc1nc(NCc2ccccc2)c2ncn(C(C)C)c2n1`, with above 5 µM; and `Cc1ncc([N+](=O)[O-])n1CC(O)CN1CCOCC1` (stereo not drawn), with above 5 µM. Next, `Nc1cc(-c2nc3ccccc3[nH]2)n[nH]c1=O`: above 5 µM; `Cc1nc(-c2ccc(C3N(C)c4ccc(F)cc4C(=O)N3c3ccccc3)s2)cs1` (stereo not drawn): above 5 µM.

`COC(=O)Nc1nc2ccccc2[nH]1` gave a half-maximal inhibitory concentration (IC50) above 5 µM. Then `c1cnc(NCc2ccc(CNc3ncccn3)cc2)nc1`, with above 5 µM; and `Nc1nc2c(Cc3cccnc3)c[nH]c2c(=O)[nH]1`, with above 5 µM; and `CCc1c(OCC2CCC2)c2cc(F)ccc2[nH]c1=O`, with above 5 µM. Take `CC(C)(C)c1ccc(C(=O)NC(=O)N2CCCc3ccccc32)cc1`: the IC50 is above 5 µM. `Cc1[nH]c2ccccc2c1CC(=O)N[C@@H](Cc1ccccc1)C(=O)N(C)c1ccccc1` returned an IC50 above 5 µM. Then `O=C(CSc1nnc(Br)n1-c1ccc(C2CC2)c2ccccc12)Nc1ccc(C(=O)O)cc1Cl`, with above 5 µM; and `COc1ccc(SCC(=O)N2c3ccccc3Sc3ccccc32)cc1`, with above 5 µM. Next, `CCN1CCN(Cc2nc3ccc([N+](=O)[O-])cc3c(=O)n2-c2ccccc2F)CC1`: above 5 µM; `O=C(O)COc1cccc2c1CC[C@](O)(COC(=O)N(c1ccccc1)c1ccccc1)C2`: above 5 µM; `OCCCCn1cnc2c(O)nc(NCc3ccc(Cl)c(Cl)c3)nc21`: above 5 µM. Then `COc1ccc2c(c1OC)C(=O)OC2C1c2c(cc3c(c2OC)OCO3)CCN1C` (stereo not drawn), with above 5 µM; and `Cc1cccc(CC(=O)N[C@H]2CCOC2=O)c1`, with above 5 µM; and `C=C(C)n1c(=O)n(Cc2ccccc2C)c2ccccc21`, with above 5 µM. With `Cn1c2ccccc2c(=O)c2c(O)cccc21`, the IC50 was above 5 µM.

Regarding `CCCC(=O)OCCc1ccccc1`, the IC50 was above 5 µM. In turn, `CC(N)C(=O)NC(CCCCN)C(=O)NC(CCCNC(=N)N)C(=O)NC(Cc1c[nH]cn1)C(=O)NC(Cc1c[nH]cn1)C(=O)NCC(=O)NC(Cc1ccc(O)cc1)C(=O)NC(CCCCN)C(=O)NC(CCCNC(=N)N)C(=O)NC(CCCCN)C(=O)NC(Cc1ccccc1)C(=O)NC(Cc1c[nH]cn1)C(N)=O` (stereo not drawn) showed a 50% inhibitory concentration (IC50) above 5 µM. Then `COc1ccc(C(C)(C)C)cc1NC(=O)C(=O)c1ccc(OCCN2CCOCC2)c2ccccc12`, with above 5 µM; and `COc1cc(NC(=O)CN2C(=O)NC(c3ccccc3)(c3ccccc3)C2=O)cc(OC)c1`, with above 5 µM; and `Clc1cccc(-c2nnc(-c3ccccc3)o2)c1`, with above 5 µM. Next, `C[N+]1(C)CCCC(OC(=O)C(O)(c2ccccc2)c2ccccc2)C1` (stereo not drawn): above 5 µM; `COc1ccc(C2CNC(=O)C2)cc1OC1CCCC1` (stereo not drawn): above 5 µM; `OB1OCc2cc(Cl)ccc21`: above 5 µM. Next, `O=C(Nc1[nH]c(=O)ncc1F)c1ccccc1`: above 5 µM; `CCOC(=O)/C=C/[C@H](C[C@@H]1CCNC1=O)NC(=O)[C@@H](CC(=O)[C@@H](NC(=O)c1cc(C)on1)C(C)C)Cc1ccc(F)cc1`: above 5 µM; `Cc1cc(O)c2c(c1)C(=O)c1c(I)c(O)c(I)c(O)c1C2=O`: above 5 µM. On to `Nc1nc(O)c2ncn(COC(CO)CO)c2n1`, for which the IC50 was above 5 µM. Then `O=[N+]([O-])c1cn(Cc2nc(O)nc(O)c2Br)cn1`, with above 5 µM; and `Cc1cc(CCOc2c(C)cc(-c3nnn(C)n3)cc2C)on1`, with above 5 µM. Then `Cc1ccc(Oc2ccccc2-c2csc(NC3=NCCCN3)n2)c(C)c1`, with above 5 µM; and `O=C1c2cccc3cccc(c23)C(=O)N1CC1CO1` (stereo not drawn), with 4.29 µM.

In turn, `O=C(O)c1cc(-c2ccc(Br)cc2)nc2ccc(Cl)cc12` displayed a half-inhibitory concentration (IC50) above 5 µM.

With `C[C@H](NC(CC(=O)c1ccccc1C(F)(F)F)C(=O)O)c1ccccc1` (stereo partly drawn), the IC50 was above 5 µM. In turn, `C/C(=N\NC(=O)C1CC1c1ccccc1)c1ccc(NC(=O)c2ccco2)cc1` (stereo not drawn) showed a half-inhibitory concentration (IC50) above 5 µM. On to `NC(=O)C(c1ccccc1)(c1ccccc1)[C@H]1CCCN(CCc2ccc3c(c2)CCO3)C1`, for which the concentration for half-maximal inhibition (IC50) is above 5 µM. Then `Nc1nc(NC2Cc3ccc(F)cc3C2)nc(N2CCCCC2)n1` (stereo not drawn), with above 5 µM; and `O=C(NN1C(=O)[C@@H]2C3C=CC([C@H]4C[C@@H]34)[C@@H]2C1=O)c1ccc(C(F)(F)F)cc1`, with above 5 µM. Then `Cc1nc(Nc2ccc(F)cc2)nc(N2CCc3ccccc3C2C)c1C` (stereo not drawn), with above 5 µM. Then `COC(=O)Nc1nc2cc(S(=O)c3ccccc3)ccc2[nH]1` (stereo not drawn), with above 5 µM. In the case of `CCc1cc(CCCOc2c(C)cc(-c3noc(C(F)(F)F)n3)cc2C)on1`, the concentration for half-maximal inhibition (IC50) was above 5 µM.

`COc1cc(Cc2cnc(N)nc2N)cc(OC)c1OC` had an IC50 above 5 µM. Then `O=c1ccc2ncc(=O)n3c2n1CC3CN1CCC(NCc2cc3c(cn2)OCCC3)CC1` (stereo not drawn), with above 5 µM. Next, `CN(C)CCNC(=O)c1cccc2cccnc12`: above 5 µM; `O=C(NC1CCCc2c1[nH]c1ccc(Cl)cc21)c1ccccn1` (stereo not drawn): above 5 µM; `O=C(c1ccc(F)cc1)N1CCN2C(=O)c3ccccc3C12c1ccccc1` (stereo not drawn): above 5 µM. Then `CCC(CC)[C@H](NC(C)=O)[C@@H]1[C@H](O)[C@@H](C(=O)O)C[C@H]1NC(=N)N`, with above 5 µM. `CC(Cc1ccccc1)C(=O)Nc1ccc(Cl)cc1C(=O)O` (stereo not drawn) yielded a concentration for half-maximal inhibition (IC50) above 5 µM. Next, `CC(=O)N[C@H](C)C(=O)N[C@H](Cc1ccccc1)C(=O)O`: above 5 µM. Next, `O=S(=O)(Nc1ccc(O)cc1)c1cccc2cccnc12`: above 5 µM.

In the case of `NCCCc1ccccc1C(=O)Nc1ncc([N+](=O)O)s1`, the concentration for half-maximal inhibition (IC50) is above 5 µM.

`COc1ccc(C[C@@H](C)[C@@H](C)Cc2ccc(OC)c(OC)c2)cc1OC`: the IC50 was above 5 µM. Next, `O=C(Nc1nnc(-c2ccc(Cl)cc2)o1)c1ccc(F)cc1`: above 5 µM. Next, `FC(F)(F)Oc1ccc(Nc2ccc3cccc(Cl)c3n2)cc1`: above 5 µM; `Cc1ncc([N+](=O)[O-])n1CC(C)O` (stereo not drawn): above 5 µM; `O=C(c1cc(O)nc2ccccc12)N1CCN(c2ccccc2)CC1`: above 5 µM. Take `Cc1cc(C)n2nc(C(=O)NS(=O)(=O)c3c(C)cccc3OC(F)(F)F)nc2n1`: the IC50 is above 5 µM.

`O=c1oc2ccc(Br)cc2cc1CSc1ncc[nH]1` yielded a concentration for half-maximal inhibition (IC50) above 5 µM.

Turning to `CC(=O)NC[C@H]1CN(c2ccc(N3CCSCC3)c(F)c2)C(=O)O1`, the concentration for half-maximal inhibition (IC50) is above 5 µM. As to `O=C1NC(=O)C(Br)=C1Br`, the IC50 was above 5 µM. Consider `N#CCN1C(=O)COc2cc(F)c(N3C(=O)c4ccccc4C3=O)cc21`, for which the IC50 is above 5 µM. Then `Oc1ccc2[nH]c(-c3ccccc3)nc2c1`, with above 5 µM.

One may read the IC50 as the concentration at which inhibition is half-maximal.

The values are drawn from the supplement of paper PMC7801607.
